According to patent publication US9157077B2, “Aminopyrimidine kinase inhibitors” (Jasco Pharmaceuticals, LLC, priority 2009, dated 2015):
Like-named read-outs stand apart in the source and are kept apart here.

Columns and labels:
cell lines = assay: Selected cell proliferation inhibition data: cytotoxicity and IC50 determination (MTS/PMS, 72 hours), Tables 27 and 28; assay type: cell-based; details: Homo sapiens; for inhibition at 30 µM: 30 μM compound; for IC50: 72 hours, MTS
Method: Selected Cell Proliferation Inhibition Data
All cells were cultured in media supplemented with 10% FBS except for which are marked specially, in the temperature of 37° C., 5% CO2 and 95% humidity. All culture media were purchased from GIBCO (USA, IMDM Cat. 12200-036; RPMI Medium 1640 Cat. 31800-022; 2-mercaptoethanol Cat. 21985-023).
• CellTiter 96® AQueous MTS reagent powder (Cat. No.: G11 12, Promega. Store MTS Reagent Powder desiccated at 4° C. protected from light.) • Phenazine methosulfate (PMS) (Product No.: P9625, SIGMA. Store PMS Powder desiccated at 4° C. protected from light.) Preparation of PMS Solution:
The following protocol is recommended for the preparation of 21 mL of MTS solution (sufficient for ten 96-well plates). • a. Select a light-protected container or wrap a container with foil. • b. Add 21 mL of DPBS to the container. • c. Weigh out 42 mg of MTS Reagent Powder and add to DPBS. • d. Mix at moderate speed on a magnetic stir plate for 15 minutes or until the MTS is completely dissolved. • e. Measure the pH of the MTS solution. The optimum pH is between pH 6.0 to 6.5. If the solution is above pH 6.5, adjust to pH 6.5 with 1N HC1. • f. Filter-sterilize the MTS solution through a 0.2 μm filter into a sterile, light protected container. • g. Store the MTS solution at −20° C., protected from light. Preparation of the Mixture of MTS/PMS: • a. In order to prepare reagents sufficient for one 96-well plate containing cells cultured in a 100 μL volume, thaw the MTS solution and the PMS solution. It should take approximately 90 minutes at room temperature or 10 minutes in a 37° C. water bath to completely thaw the 20 mL size of MTS solution. […] Remove 2.0 mL of MTS solution from the amber reagent bottle using aseptic technique and transfer to a test tube. • c. Add 100 μL of PMS solution to the 2.0 mL of MTS solution immediately before addition to the culture plate containing cells. • d. Gently swirl the tube to ensure complete mixing of the combined MTS/PMS solution. Equipment:
• 1. The cells were harvested respectively during the logarithmic growth period and counted with hemocytometer. The cell viability was over 98% by trypan blue exclusion. • 2. Cell concentrations were adjusted to 2.22×10^5 or 1.11×10^5 or 5.56×10^4 cells/mL with respective medium. • 3. 90 μL cell suspensions were added to 96-well plates (triplicates for each cell concentration), the final cell densities were 2×10^4 or 1×10^4 or 5×10^3 cells/well. The density of 5×10^3 cells/well was used for the first test. The appropriate cell density was determined and adjusted according to the results of the first test. • 4. The next day, test article or positive drugs were dissolved with DMSO as stock solution at the concentration of 20 mM. • 5. 10 μL drug solution was dispensed in each well (triplicate for each drug concentration). • 6. Plates were cultured for another 72 hours, then measured by means of MTS assay. • 7. MTS/PMS solution was prepared immediately prior to use. 20 μL of the mixture was introduced into each well of the 96-well assay plate containing 100 μL culture medium. (The final reaction volume was 120 μL). • 8. Plate was incubated for 1-4 hours at 37° C. in a humidified 5% CO2 atmosphere. • 9. Absorbance at 490 nm was recorded using SpectraMAX Plus microplate spectrophotometer. Data Analysis:
The software of GraphPad Prism version 5 was used to calculate IC50. The graphical curves were fitted using a nonlinear regression model with a sigmoidal dose.

[1] = biological target: Enzyme (kinases of Table 30) (Homo sapiens, UniProt P11309); assay: IC50 of Compound (nM) (ATP present at Km of enzyme), Table 30; assay type: biochemical
[2] = biological target: T1, Enzyme (kinases of Table 30) (Homo sapiens, UniProt P68400); assay: as above; assay type: biochemical; details: CK2(h), ATP present at Km of enzyme
T1 construct: IC50 of Compound, CK2(h); other: CK2(h), ATP present at Km of enzyme

[3] = biological target: Enzyme (kinases of Table 30) (Homo sapiens, UniProt Q86V86); assay: as above; assay type: biochemical
[4] = biological target: Enzyme (kinases of Table 30) (Homo sapiens, UniProt Q9P1W9); assay: as above; assay type: biochemical
[5] = MV4-11 cell line, read-out: Percent inhibition at 30 μM of Compound, MV4-11
[6] = MV4-11 cell line, read-out: IC50 values, MV4-11
[7] = NCI-H929 cell line, read-out: Percent inhibition at 30 μM of Compound, NCI-H929
[8] = NCI-H929 cell line, read-out: IC50 values, NCI-H929
[9] = RPMI 8226 cell line, read-out: Percent inhibition at 30 μM of Compound, RPMI 8226
[10] = RPMI 8226 cell line, read-out: IC50 values, RPMI 8226
[11] = Pim-1(h), ATP present at Km of enzyme, read-out: IC50 of Compound, Pim-1(h)
[12] = Pim-3(h), ATP present at Km of enzyme, read-out: IC50 of Compound, Pim-3(h)
[13] = Pim-2(h), ATP present at Km of enzyme, read-out: IC50 of Compound, Pim-2(h)

Sequence of Enzyme (kinases of Table 30) (Homo sapiens, UniProt Q9P1W9) (Q9P1W9 whole entry): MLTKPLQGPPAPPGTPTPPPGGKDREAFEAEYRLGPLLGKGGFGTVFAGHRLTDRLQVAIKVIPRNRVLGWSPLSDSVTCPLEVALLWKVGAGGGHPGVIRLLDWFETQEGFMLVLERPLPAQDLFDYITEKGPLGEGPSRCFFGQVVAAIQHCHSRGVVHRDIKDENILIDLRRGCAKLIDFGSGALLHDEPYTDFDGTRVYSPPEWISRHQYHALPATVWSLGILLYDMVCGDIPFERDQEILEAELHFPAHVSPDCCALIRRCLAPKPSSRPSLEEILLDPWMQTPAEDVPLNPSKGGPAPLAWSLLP
Sequence of Enzyme (kinases of Table 30) (Homo sapiens, UniProt P11309) (P11309 whole entry): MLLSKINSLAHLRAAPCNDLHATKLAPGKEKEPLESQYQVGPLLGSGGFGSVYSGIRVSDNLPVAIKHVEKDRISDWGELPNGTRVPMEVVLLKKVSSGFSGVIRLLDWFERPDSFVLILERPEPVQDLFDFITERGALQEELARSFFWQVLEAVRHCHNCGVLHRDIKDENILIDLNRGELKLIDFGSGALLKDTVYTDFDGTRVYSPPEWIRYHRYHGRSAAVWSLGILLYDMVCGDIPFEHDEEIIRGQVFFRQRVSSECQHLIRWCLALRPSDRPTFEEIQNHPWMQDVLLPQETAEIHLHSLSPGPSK
T1 sequence (P68400 whole entry): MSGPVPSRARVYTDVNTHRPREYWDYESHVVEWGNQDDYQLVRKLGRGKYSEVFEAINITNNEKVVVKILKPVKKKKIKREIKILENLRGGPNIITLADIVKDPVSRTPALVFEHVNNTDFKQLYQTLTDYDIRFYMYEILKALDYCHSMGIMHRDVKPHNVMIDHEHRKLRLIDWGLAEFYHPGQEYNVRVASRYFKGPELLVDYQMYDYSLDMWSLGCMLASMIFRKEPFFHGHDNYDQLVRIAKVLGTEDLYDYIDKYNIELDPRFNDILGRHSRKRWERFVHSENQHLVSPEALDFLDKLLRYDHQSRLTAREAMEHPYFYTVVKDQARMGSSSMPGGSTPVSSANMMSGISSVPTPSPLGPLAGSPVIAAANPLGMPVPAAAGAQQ

Row | SMILES | inhibition at 30 µM (cell lines; [5]) [%] | IC50 (cell lines; [6]) [nM] | inhibition at 30 µM (cell lines; [7]) [%] | IC50 (cell lines; [8]) [nM] | inhibition at 30 µM (cell lines; [9]) [%] | IC50 (cell lines; [10]) [nM] | IC50 [1, 11] [nM] | IC50 [3, 12] [nM] | IC50 [4, 13] [nM] | other results
1 | O=C1NC(=O)/C(=C/c2ccnc(N3CCCC4NCCCC43)n2)S1 (stereo not drawn) [Example 155, (Z)-5-((2-(octahydro-1,5-naphthyridin-1(2H)-yl)pyrimidin-4-yl)methylene)thiazolidine-2,4-dione] | 97.6 | 12500 | 73.7 | 3960 | 53.9 |  |  |  |  | 
2 | Nc1cccc2c1CCN(c1nccc(/C=C3\SC(=O)NC3=O)n1)C2 [Example 120, (Z)-5-((2-(5-amino-3,4-dihydroisoquinolin-2(1H)-yl)pyrimidin-4-yl)methylene)thiazolidine-2,4-dione] | 95.1 | 4050 | 89.8 | 2810 | 76.4 | 1540 |  |  |  | 
3 | O=C1NC(=O)/C(=C/c2ccnc(N3CCC(CO)CC3)n2)S1 [compound 98] |  |  |  |  |  |  | 204 | 169 | 136 | IC50 [2]: 422 nM
4 | O=C1NC(=O)/C(=C/c2ccnc(N3CCC(CNCc4ccncc4)CC3)n2)S1 [compound 177] |  |  |  |  |  |  | 96 | 22 | 87 | IC50 [2]: 705 nM
5 | Cc1cc(CNCC2CCN(c3nccc(/C=C4\SC(=O)NC4=O)n3)CC2)c2ccccc2n1 [compound 181] |  |  |  |  |  |  | 79 | 34 | 44 | 
6 | O=C1NC(=O)/C(=C/c2ccnc(N3CCC(CNCc4cccc(-c5ccc(F)cc5)n4)CC3)n2)S1 [compound 204] |  |  |  |  |  |  | 99 | 109 | 217 | 
7 | O=C1NC(=O)/C(=C/c2ccnc(N3CCC(CNCc4ccc5cc(F)ccc5n4)CC3)n2)S1 [compound 191] |  |  |  |  |  |  | 6 | 5 | 23 | 
8 | COc1cccc(CNCC2CCN(c3nccc(/C=C4\SC(=O)NC4=O)n3)CC2)n1 [Example 183, (Z)-5-((2-(4-((((6-methoxypyridin-2-yl)methyl)amino)methyl)piperidin-1-yl)pyrimidin-4-yl)methylene)thiazolidine-2,4-dione] | 94.4 |  | 98.6 | 4600 | 82.3 | 9600 |  |  |  | 
9 | CC1CCCN(c2nccc(/C=C3\SC(=O)NC3=O)n2)C1 (stereo not drawn) [compound 117] |  |  |  |  |  |  | 164 | 436 | 50 | 
10 | Cc1ccc(N2CCN(c3nccc(/C=C4\SC(=O)NC4=O)n3)CC2)cc1 [Example 9, (Z)-5-((2-(4-(p-tolyl)piperazin-1-yl)pyrimidin-4-yl)methylene)thiazolidine-2,4-dione] | 91.1 | 6780 | 91.4 | 11500 | 71.2 | 16100 |  |  |  | 
11 | COc1cccc2ccc(CNCC3CCN(c4nccc(/C=C5\SC(=O)NC5=O)n4)CC3)nc12 [Example 189, (Z)-5-((2-(4-((((8-methoxyquinolin-2-yl)methyl)amino)methyl)piperidin-1-yl)pyrimidin-4-yl)methylene)thiazolidine-2,4-dione] | 97.9 | 4710 | 98.5 | 3040 | 99.9 | 8320 |  |  |  | 
12 | O=C1NC(=O)/C(=C/c2ccnc(N3CCCC4NCCCC43)n2)S1 (stereo not drawn) [compound 155] |  |  |  |  |  |  |  |  |  | IC50 [1]: 19 nM; IC50 [3]: 9 nM; IC50 [4]: 14 nM
13 | O=C1NC(=O)/C(=C/c2ccnc(N3CCC(CNCc4cccc(-c5cccs5)n4)CC3)n2)S1 [compound 205] |  |  |  |  |  |  | 54 | 38 | 199 | 
14 | Cc1cccc(CNCC2CCN(c3nccc(/C=C4\SC(=O)NC4=O)n3)CC2)n1 [compound 174] |  |  |  |  |  |  | 58 | 16 | 75 | 
15 | O=C1NC(=O)/C(=C/c2ccnc(N3CCC(CNCc4nccc5ccccc45)CC3)n2)S1 [Example 182, (Z)-5-((2-(4-(((isoquinolin-1-ylmethyl)amino)methyl)piperidin-1-yl)pyrimidin-4-yl)methylene)thiazolidine-2,4-dione] | 91.1 | 2020 | 96.5 | 7080 | 90.2 | 11900 |  |  |  | 
16 | O=C1NC(=O)/C(=C/c2ccnc(NC3CNc4ccccc4C3)n2)S1 (stereo not drawn) [Example 140, (Z)-5-((2-((1,2,3,4-tetrahydroquinolin-3-yl)amino)pyrimidin-4-yl)methylene)thiazolidine-2,4-dione] | 94.3 | 5510 | 96.7 | 8840 | 65.3 | 11200 |  |  |  | 
17 | O=C1NC(=O)/C(=C/c2ccnc(N3CCC(CNCc4ccc5ccccc5n4)CC3)n2)S1 [Example 180, (Z)-5-((2-(4-(((quinolin-2-ylmethyl)amino)methyl)piperidin-1-yl)pyrimidin-4-yl)methylene)thiazolidine-2,4-dione] | 90.7 | 11000 | 100 | 10900 | 79.7 | 9140 |  |  |  | 
18 | Cc1cc(CNCC2CCN(c3nccc(/C=C4\SC(=O)NC4=O)n3)CC2)c2ccccc2n1 [Example 181, (Z)-5-((2-(4-((((2-methylquinolin-4-yl)methyl)amino)methyl)piperidin-1-yl)pyrimidin-4-yl)methylene)thiazolidine-2,4-dione] | 96.6 | 1200 | 93.5 | 4420 | 82.2 | 3410 |  |  |  | 
19 | O=C1NC(=O)/C(=C/c2ccnc(N3CCC(CNCc4ccc5cc(F)ccc5n4)CC3)n2)S1 [Example 191, (Z)-5-((2-(4-((((6-fluoroquinolin-2-yl)methyl)amino)methyl)piperidin-1-yl)pyrimidin-4-yl)methylene)thiazolidine-2,4-dione] | 87.4 | 2400 | 94 | 3260 | 93.1 | 6860 |  |  |  | 
20 | CC1CC(C)CN(c2nccc(/C=C3\SC(=O)NC3=O)n2)C1 (stereo not drawn) [compound 99] |  |  |  |  |  |  | 137 | 199 | 18 | 
21 | O=C1NC(=O)/C(=C/c2ccnc(N3CCC(CNCc4ccccn4)CC3)n2)S1 [compound 172] |  |  |  |  |  |  | 157 | 46 | 142 | 
22 | O=C1NC(=O)/C(=C/c2ccnc(N3CCC(CNCc4ccc5ccccc5n4)CC3)n2)S1 [compound 180] |  |  |  |  |  |  | 13 | 15 | 15 | 
23 | NCc1cccc(CNc2nccc(/C=C3\SC(=O)NC3=O)n2)c1 [compound 159] |  |  |  |  |  |  | > 1000 | 231 | 104 | 
